Reference: article PMC6321168, “Comparative Study on Excretive Characterization of Main Components in Herb Pair Notoginseng-Safflower and Single Herbs by LC–MS/MS” (Pharmaceutics, 2018)

Assay: Urinary excretion study in rats after oral NS, SF or CNS (LC–MS/MS)
Format: in vivo
Settings: for concentration at 2 h / concentration at 4 h / concentration at 8 h / concentration at 12 h / concentration at 24 h / concentration at 36 h / concentration at 48 h / concentration at 72 h / concentration at 96 h / concentration at 120 h / concentration at 6 h: male, Sprague Dawley, rat, urine, oral; for Accumulative excretion amount / Accumulative excretion percentage / Excretion amount: rat urine
Procedure: The animal room was set at constant temperature of 20 ± 2 °C with humidity of 50 ± 20% and 12/12 h light/dark cycle.
Eighteen male rats were fasted for 12 h before starting the experiment. The rats were divided into three groups at random (n = 6) and received NS (60 mg/kg), SF (50 mg/kg), and NS (60 mg/kg) + SF (50 mg/kg), respectively, by oral gavage. The rats were placed in separate metabolic cages. The urine samples were collected at 0–2, 2–4, 4–6, 6–8, 8–12, 12–24, 24–36, 36–48, 48–72, 72–96, and 96–120 h. The feces samples were collected at 0–4, 4–8, 8–12, 12–24, 24–36, 36–48, 48–72, 72–96, and 96–120 h. The urine volume was recorded and the dry feces were measured for each collection period. Samples were stored at −80 °C until analysis.
An aliquot of 200 μL urine sample was mixed with 10 μL of IS and evaporated to dryness with a ZLS-2 vacuum centrifugal concentrator (Herexi Co., Ltd., Changsha, Hunan, China). The residue was reconstituted in 100 μL of 50% methanol vortexed for 2 min and centrifuged at 12,000 rpm for 15 min. Finally, a 1 μL aliquot was injected for LC–MS analysis.
Ultra fast liquid chromatography (UFLC) analysis was performed using a Shimadzu UFLC system (DGU-20A3R Degasser; LC-20AD pump; SIL-20AXR Autosampler; CTO-20AC Column Oven) (Nakagyo-Ku, Koyoto, Japan). […] Because of the different endogenous substances in the urine and feces samples, different elution gradients were used to alleviate the matrix effects for the analytes.
The mass spectrometric detection was performed on an ABSciex 4500 Qtrap mass spectrometer (ABSciex, Foster City, CA, USA) equipped with a negative electrospray ionization (ESI) interface using multiple reaction monitoring (MRM). The MS parameters were optimized under the selected ion monitoring conditions as follows: curtain gas, 35 psi; ionspray voltage, 4500 V; turbo gas temperature, 450 °C; GS1, 45 psi; GS2, 45 psi. All data were acquired and analyzed by Analyst software (Versions 1.6.2) from ABSciex.
The accumulative excretion percentage was calculated for each analyte as follows. Excretion at time (t) = [concentration of the analyte (ng/mL) at t] × total urine (or feces) volume (mL) at t. The cumulative excretion up to time t (mg) was expressed as a percent (%) cumulative excretion by dividing by the total amount of the analyte ingested (mg): % Cumulative Excretion = 100 × (Σt excretiont) total ingested.

A concentration at 2 h (60 mg/kg, oral NS 60 mg/kg, 2 h) of 115 ± 284 ng/mL, a concentration at 4 h (60 mg/kg, oral NS 60 mg/kg, 4 h) of 245 ± 450 ng/mL and a concentration at 8 h (60 mg/kg, oral NS 60 mg/kg, 8 h) of 140 ± 196 ng/mL were found for `CC(C)=CCC[C@](C)(O[C@@H]1O[C@H](CO[C@@H]2O[C@H](CO)[C@@H](O)[C@H](O)[C@H]2O)[C@@H](O)[C@H](O)[C@H]1O)[C@H]1CC[C@]2(C)[C@@H]1[C@H](O)C[C@@H]1[C@@]3(C)CC[C@H](O[C@@H]4O[C@H](CO)[C@@H](O)[C@H](O)[C@H]4O[C@@H]4O[C@H](CO)[C@@H](O)[C@H](O)[C@H]4O)C(C)(C)[C@@H]3CC[C@]12C` [ginsenoside Rb1] in this work. The concentration at 12 h (60 mg/kg, oral NS 60 mg/kg, 12 h) was 214 ± 344 ng/mL, the concentration at 24 h (60 mg/kg, oral NS 60 mg/kg, 24 h) was 240 ± 553 ng/mL and the concentration at 36 h (60 mg/kg, oral NS 60 mg/kg, 36 h) was 61 ± 54 ng/mL. The concentration at 48 h (60 mg/kg, oral NS 60 mg/kg, 48 h) was 142 ± 344 ng/mL, the concentration at 72 h (60 mg/kg, oral NS 60 mg/kg, 72 h) was 84 ± 195 ng/mL and the concentration at 96 h (60 mg/kg, oral NS 60 mg/kg, 96 h) was 45 ± 104 ng/mL. The concentration at 120 h (60 mg/kg, oral NS 60 mg/kg, 120 h) was 25 ± 62 ng/mL, the concentration at 2 h (oral CNS 110 mg/kg, 2 h) was 54 ± 73 ng/mL and the concentration at 4 h (oral CNS 110 mg/kg, 4 h) was 27 ± 41 ng/mL. The concentration at 6 h (oral CNS 110 mg/kg, 6 h) was 111 ± 121 ng/mL, the concentration at 8 h (oral CNS 110 mg/kg, 8 h) was 105 ± 100 ng/mL and the concentration at 12 h (oral CNS 110 mg/kg, 12 h) was 120 ± 134 ng/mL. The concentration at 24 h (oral CNS 110 mg/kg, 24 h) was 72 ± 50 ng/mL, the concentration at 36 h (oral CNS 110 mg/kg, 36 h) was 138 ± 144 ng/mL and the concentration at 48 h (oral CNS 110 mg/kg, 48 h) was 51 ± 60 ng/mL. For the same molecule, the concentration at 72 h (oral CNS 110 mg/kg, 72 h) was 33 ± 28 ng/mL, the concentration at 96 h (oral CNS 110 mg/kg, 96 h) was 19 ± 14 ng/mL and the concentration at 120 h (oral CNS 110 mg/kg, 120 h) was 14 ± 12 ng/mL. It also gave a concentration at 6 h (oral NS 60 mg/kg, 6 h) of 140 ± 244 ng/mL, an Accumulative excretion amount (oral CNS 110 mg/kg, 2 h) of 0.075 ± 0.093 µg and an Accumulative excretion percentage (oral CNS 110 mg/kg, 2 h) of 0.002±0.002%. It also gave an Excretion amount (oral CNS 110 mg/kg, 2 h) of 0.075 ± 0.093 µg, an Accumulative excretion amount (oral CNS 110 mg/kg, 4 h) of 0.106 ± 0.086 µg and an Accumulative excretion percentage (oral CNS 110 mg/kg, 4 h) of 0.003±0.002%. The Excretion amount (oral CNS 110 mg/kg, 4 h) was 0.044 ± 0.050 µg, the Accumulative excretion amount (oral CNS 110 mg/kg, 6 h) was 0.218 ± 0.166 µg and the Accumulative excretion percentage (oral CNS 110 mg/kg, 6 h) was 0.006±0.004%. The Excretion amount (oral CNS 110 mg/kg, 6 h) was 0.158 ± 0.142 µg, the Accumulative excretion amount (oral CNS 110 mg/kg, 8 h) was 0.339 ± 0.213 µg and the Accumulative excretion percentage (oral CNS 110 mg/kg, 8 h) was 0.009±0.006%. It also gave an Excretion amount (oral CNS 110 mg/kg, 8 h) of 0.212 ± 0.169 µg, an Accumulative excretion amount (oral CNS 110 mg/kg, 12 h) of 0.472 ± 0.310 µg and an Accumulative excretion percentage (oral CNS 110 mg/kg, 12 h) of 0.013±0.008%. It also gave an Excretion amount (oral CNS 110 mg/kg, 12 h) of 0.154 ± 0.128 µg, an Accumulative excretion amount (oral CNS 110 mg/kg, 24 h) of 0.859 ± 0.527 µg and an Accumulative excretion percentage (oral CNS 110 mg/kg, 24 h) of 0.023±0.014%. For the same molecule, the Excretion amount (oral CNS 110 mg/kg, 24 h) was 0.388 ± 0.391 µg, the Accumulative excretion amount (oral CNS 110 mg/kg, 36 h) was 1.056 ± 0.587 µg and the Accumulative excretion percentage (oral CNS 110 mg/kg, 36 h) was 0.028±0.016%. For the same molecule, the Excretion amount (oral CNS 110 mg/kg, 36 h) was 0.197 ± 0.129 µg, the Accumulative excretion amount (oral CNS 110 mg/kg, 48 h) was 1.303 ± 0.684 µg and the Accumulative excretion percentage (oral CNS 110 mg/kg, 48 h) was 0.035±0.018%. The Excretion amount (oral CNS 110 mg/kg, 48 h) was 0.247 ± 0.216 µg, the Accumulative excretion amount (oral CNS 110 mg/kg, 72 h) was 1.373 ± 0.705 µg and the Accumulative excretion percentage (oral CNS 110 mg/kg, 72 h) was 0.037±0.019%. For the same molecule, the Excretion amount (oral CNS 110 mg/kg, 72 h) was 0.070 ± 0.060 µg, the Accumulative excretion amount (oral CNS 110 mg/kg, 96 h) was 1.414 ± 0.715 µg and the Accumulative excretion percentage (oral CNS 110 mg/kg, 96 h) was 0.038±0.019%. For the same molecule, the Excretion amount (oral CNS 110 mg/kg, 96 h) was 0.040 ± 0.031 µg, the Accumulative excretion amount (oral CNS 110 mg/kg, 120 h) was 1.436 ± 0.726 µg and the Accumulative excretion percentage (oral CNS 110 mg/kg, 120 h) was 0.038±0.019%. The Excretion amount (oral CNS 110 mg/kg, 120 h) was 0.022 ± 0.025 µg, the Accumulative excretion amount (oral NS 60 mg/kg, 2 h) was 0.075 ± 0.063 µg and the Accumulative excretion percentage (oral NS 60 mg/kg, 2 h) was 0.002±0.001%. For the same molecule, the Excretion amount (oral NS 60 mg/kg, 2 h) was 0.075 ± 0.063 µg, the Accumulative excretion amount (oral NS 60 mg/kg, 4 h) was 0.574 ± 1.167 µg and the Accumulative excretion percentage (oral NS 60 mg/kg, 4 h) was 0.013±0.027%. The Excretion amount (oral NS 60 mg/kg, 4 h) was 0.872 ± 1.518 µg, the Accumulative excretion amount (oral NS 60 mg/kg, 6 h) was 0.798 ± 1.077 µg and the Accumulative excretion percentage (oral NS 60 mg/kg, 6 h) was 0.019±0.025%. The Excretion amount (oral NS 60 mg/kg, 6 h) was 0.262 ± 0.207 µg, the Accumulative excretion amount (oral NS 60 mg/kg, 8 h) was 0.863 ± 1.044 µg and the Accumulative excretion percentage (oral NS 60 mg/kg, 8 h) was 0.021±0.025%. It also gave an Excretion amount (oral NS 60 mg/kg, 8 h) of 0.152 ± 0.084 µg, an Accumulative excretion amount (oral NS 60 mg/kg, 12 h) of 1.139 ± 1.140 µg and an Accumulative excretion percentage (oral NS 60 mg/kg, 12 h) of 0.027±0.027%. For the same molecule, the Excretion amount (oral NS 60 mg/kg, 12 h) was 0.276 ± 0.142 µg, the Accumulative excretion amount (oral NS 60 mg/kg, 24 h) was 1.881 ± 1.352 µg and the Accumulative excretion percentage (oral NS 60 mg/kg, 24 h) was 0.044±0.032%. For the same molecule, the Excretion amount (oral NS 60 mg/kg, 24 h) was 0.742 ± 0.289 µg, the Accumulative excretion amount (oral NS 60 mg/kg, 36 h) was 2.275 ± 1.435 µg and the Accumulative excretion percentage (oral NS 60 mg/kg, 36 h) was 0.053±0.033%. The Excretion amount (oral NS 60 mg/kg, 36 h) was 0.394 ± 0.221 µg, the Accumulative excretion amount (oral NS 60 mg/kg, 48 h) was 2.476 ± 1.415 µg and the Accumulative excretion percentage (oral NS 60 mg/kg, 48 h) was 0.058±0.033%. For the same molecule, the Excretion amount (oral NS 60 mg/kg, 48 h) was 0.201 ± 0.117 µg, the Accumulative excretion amount (oral NS 60 mg/kg, 72 h) was 2.506 ± 1.429 µg and the Accumulative excretion percentage (oral NS 60 mg/kg, 72 h) was 0.058±0.033%. It also gave an Excretion amount (oral NS 60 mg/kg, 72 h) of 0.030 ± 0.020 µg, an Accumulative excretion amount (oral NS 60 mg/kg, 96 h) of 2.521 ± 1.438 µg and an Accumulative excretion percentage (oral NS 60 mg/kg, 96 h) of 0.060±0.034%. For the same molecule, the Excretion amount (oral NS 60 mg/kg, 96 h) was 0.016 ± 0.011 µg, the Accumulative excretion amount (oral NS 60 mg/kg, 120 h) was 2.528 ± 1.439 µg and the Accumulative excretion percentage (oral NS 60 mg/kg, 120 h) was 0.060±0.034%. It also gave an Excretion amount (oral NS 60 mg/kg, 120 h) of 0.006 ± 0.003 µg.
